This passage reports Emax and EC50 results from patent US20230265151A1, “GIP/GLP1 CO-AGONIST COMPOUNDS” (priority 2020, published 2023).

What all share (format): cell-based
One assay has as its target T1, hGIPR (Homo sapiens, UniProt P48546).
T1 construct: expressed in transfected cells
T1 sequence (P48546 22-466): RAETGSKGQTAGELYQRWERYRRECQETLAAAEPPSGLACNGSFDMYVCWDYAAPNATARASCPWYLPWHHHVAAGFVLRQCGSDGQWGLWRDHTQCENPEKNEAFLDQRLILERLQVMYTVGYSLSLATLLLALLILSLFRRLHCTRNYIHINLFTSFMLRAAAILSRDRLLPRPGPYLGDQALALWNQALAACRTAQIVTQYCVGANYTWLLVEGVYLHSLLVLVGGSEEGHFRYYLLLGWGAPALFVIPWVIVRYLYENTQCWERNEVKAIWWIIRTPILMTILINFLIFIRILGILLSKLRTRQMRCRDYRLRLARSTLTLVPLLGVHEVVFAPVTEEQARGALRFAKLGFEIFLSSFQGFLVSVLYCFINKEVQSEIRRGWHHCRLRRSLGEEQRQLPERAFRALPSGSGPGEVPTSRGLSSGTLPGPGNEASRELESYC
Description: Functional cAMP formation (HTRF) in HEK-293 clonal cells expressing hGIPR, 0.1% bovine casein, without or with 1.0% human serum albumin. Particulars: for Emax: HEK293, 0.1% bovine casein and 1.0% human serum albumin, percent of maximal response to GIP(1-42)NH2, read-out: hGIPR Emax, % ± SEM; for EC50: geometric mean, read-out: hGIPR EC50, nM (SEM, n). The method, boiled down:
(§1)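 Cells were stimulated with peptide for 30 min at 37° C, then lysed in buffer carrying cAMP-d2 and anti-cAMP Eu3+-cryptate for a competitive HTRF read after at least 60 min at room temperature. The 665/620 nm ratio was converted to nM cAMP against a standard curve.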

The next assay addresses T2, hGCGR (Homo sapiens, UniProt P47871).
T2 construct: expressed in transfected cells
The assay is described as follows: Functional cAMP formation (HTRF) in HEK-293 clonal cells expressing hGCGR, 0.1% bovine casein, without or with 1.0% human serum albumin. The note with it: geometric mean, read-out: hGCGR EC50, nM (SEM, n). In outline:
as §1

The next assay concerns the target hGLP-1R (Homo sapiens, UniProt P43220). Description: Functional cAMP formation (HTRF) in HEK-293 clonal cells expressing hGLP-1R, 0.1% bovine casein, without or with 1.0% human serum albumin. Further details: expressed in transfected cells. The note with it: for Emax: percent of maximal response to GLP-1(7-36)NH2, read-out: hGLP-1R Emax, % ± SEM; for EC50: geometric mean, read-out: hGLP-1R EC50, nM (SEM, n). In outline:
as §1

[1] abbreviates: 0.1% bovine casein and 1.0% human serum albumin, 37° C.
The mark [2] stands for this setting: cAMP, incubated at 37° C., 0.1% bovine casein (no human serum albumin).

The structures appear in SMILES notation. Like-named read-outs stand apart in the source and are kept apart here.

T2 sequence (P47871 26-477): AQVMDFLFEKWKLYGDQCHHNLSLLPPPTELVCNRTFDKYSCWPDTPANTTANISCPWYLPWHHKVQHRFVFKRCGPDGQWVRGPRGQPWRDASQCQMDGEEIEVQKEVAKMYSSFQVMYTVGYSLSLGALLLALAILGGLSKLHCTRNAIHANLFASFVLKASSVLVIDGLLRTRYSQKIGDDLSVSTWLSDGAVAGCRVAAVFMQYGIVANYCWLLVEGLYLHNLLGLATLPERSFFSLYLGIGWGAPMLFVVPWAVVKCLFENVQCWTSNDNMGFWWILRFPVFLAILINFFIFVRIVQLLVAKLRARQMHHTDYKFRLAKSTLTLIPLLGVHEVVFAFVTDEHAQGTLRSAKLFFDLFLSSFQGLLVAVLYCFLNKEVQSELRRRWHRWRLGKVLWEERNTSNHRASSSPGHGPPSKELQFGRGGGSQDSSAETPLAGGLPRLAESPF
hGLP-1R, sequence (P43220 24-463): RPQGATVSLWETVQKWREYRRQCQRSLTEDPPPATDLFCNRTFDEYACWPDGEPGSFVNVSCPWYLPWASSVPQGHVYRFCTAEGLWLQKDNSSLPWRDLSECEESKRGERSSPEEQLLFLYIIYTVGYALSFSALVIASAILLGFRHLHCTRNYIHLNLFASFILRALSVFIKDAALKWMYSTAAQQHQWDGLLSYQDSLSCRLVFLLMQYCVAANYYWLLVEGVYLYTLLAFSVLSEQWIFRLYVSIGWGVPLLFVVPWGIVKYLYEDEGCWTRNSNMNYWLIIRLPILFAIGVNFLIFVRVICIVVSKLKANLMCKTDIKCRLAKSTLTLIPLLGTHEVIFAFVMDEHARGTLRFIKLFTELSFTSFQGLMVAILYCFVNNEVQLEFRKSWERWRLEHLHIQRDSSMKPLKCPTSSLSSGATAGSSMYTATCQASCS

Consider `CC[C@H](C)[C@H](NC(=O)[C@H](CCCN)NC(=O)[C@H](CC(=O)O)NC(=O)[C@H](CC(C)C)NC(=O)[C@](C)(CC(C)C)NC(=O)[C@@H](NC(=O)[C@H](CO)NC(=O)[C@H](Cc1ccc2ccccc2c1)NC(=O)[C@H](CC(=O)O)NC(=O)[C@H](CO)NC(=O)[C@@H](NC(=O)[C@](C)(Cc1ccccc1F)NC(=O)[C@@H](NC(=O)CNC(=O)[C@H](CCC(=O)O)NC(=O)C(C)(C)NC(=O)[C@@H](N)Cc1ccc(O)cc1)[C@@H](C)O)[C@@H](C)O)[C@@H](C)CC)C(=O)N[C@@H](C)C(=O)N[C@@H](CCC(N)=O)C(=O)NC(C)(C)C(=O)N[C@@H](CCCCNC(=O)COCCOCCNC(=O)COCCOCCNC(=O)CC[C@H](NC(=O)CCCCCCCCCCCCC(=O)O)C(=O)O)C(=O)N[C@@H](Cc1ccccc1)C(=O)N[C@H](C(=O)N[C@H](CCC(=O)O)C(=O)N[C@@](C)(Cc1ccc(O)cc1)C(=O)N[C@@H](CC(C)C)C(=O)N[C@H](C(=O)N[C@@H](CCCCNC(=O)COCCOCCNC(=O)COCCOCCNC(=O)CC[C@H](NC(=O)CCCCCCCCCCCCC(=O)O)C(=O)O)C(=O)NCC(=O)NCC(=O)N1CCC[C@H]1C(=O)N[C@@H](CO)C(=O)N[C@@H](CO)C(=O)NCC(=O)N[C@@H](C)C(=O)N1CCC[C@H]1C(=O)N1CCC[C@H]1C(=O)N1CCC[C@H]1C(=O)N[C@@H](CO)C(N)=O)[C@@H](C)CC)[C@@H](C)CC` [Example 253], for which the Emax (as a rule, the size of the effect at its maximum, as opposed to the concentration needed) on hGIPR (37° C.) was found to be 78.9%; on hGLP-1R (HEK293, 0.1% bovine casein and 1.0% human serum albumin, 37° C.) it was 114%; at hGLP-1R (HEK293, cAMP, 37° C., 0.1% bovine casein, arithmetic mean) it was 113%. Moreover, the EC50 (as a rule, the midpoint of the concentration-response curve) on hGCGR (setting [1]) is > 9950 nM; at hGCGR (cAMP, 37° C., 0.1% bovine casein (no human serum albumin)), > 9950 nM.
For the molecule `CC[C@H](C)[C@H](NC(=O)[C@H](CC(C)C)NC(=O)[C@](C)(Cc1ccc(O)cc1)NC(=O)[C@@H](CCC(=O)O)NC(=O)[C@@H](NC(=O)[C@H](Cc1ccccc1)NC(=O)[C@H](CCCCNC(=O)COCCOCCNC(=O)COCCOCCNC(=O)CCCCCCCCCCCCC(=O)O)NC(=O)C(C)(C)NC(=O)[C@H](CCC(N)=O)NC(=O)[C@H](C)NC(=O)[C@H](CCCCNC(=O)COCCOCCNC(=O)COCCOCCNC(=O)CCCCCCCCCCCCC(=O)O)NC(=O)[C@H](CCCN)NC(=O)[C@H](CC(=O)O)NC(=O)[C@H](CC(C)C)NC(=O)[C@](C)(CC(C)C)NC(=O)[C@@H](NC(=O)[C@H](CO)NC(=O)[C@H](Cc1ccncc1)NC(=O)[C@H](CC(=O)O)NC(=O)[C@H](CO)NC(=O)[C@@H](NC(=O)[C@](C)(Cc1ccccc1F)NC(=O)[C@@H](NC(=O)CNC(=O)[C@H](CCC(=O)O)NC(=O)C(C)(C)NC(=O)[C@@H](N)Cc1ccc(O)cc1)[C@@H](C)O)[C@@H](C)O)[C@@H](C)CC)[C@@H](C)CC)C(=O)N[C@@H](CCC(=O)O)C(=O)NCC(=O)NCC(=O)N1CCC[C@H]1C(=O)N[C@@H](CO)C(=O)N[C@@H](CO)C(=O)NCC(=O)N[C@@H](C)C(=O)N1CCC[C@H]1C(=O)N1CCC[C@H]1C(=O)N1CCC[C@H]1C(=O)N[C@@H](CO)C(N)=O` [Example 78], the EC50 was 0.242 nM on hGIPR (setting [1]); 0.0145 nM on hGIPR (setting [2]); > 9950 nM on hGCGR (setting [1]); > 9950 nM on hGCGR (setting [2]); 4.29 nM at hGLP-1R (setting [1]); 0.286 nM on hGLP-1R (setting [2]). The Emax on hGIPR (37° C.) was determined as 89.7 ± 2.65%.
